# Test results as given in ChEMBL document CHEMBL1201861, “Genomics of Drug Sensitity in Cancer screening data, Wellcome Trust Sanger Institute”.
# Tests used:
# Assay in all cases: cells
# [1] = test system: NCI-H1395; type: functional, cell-based; details: Homo sapiens;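 also: cell viability assay read-out quantifying reduced proliferation of human NCI-H1395 cells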
# Description: SANGER: Inhibition of human NCI-H1395 cell growth in a cell viability assay.
# [2] = test system: NCI-H1650; type: functional, cell-based; details: Homo sapiens;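 also: growth inhibition of human NCI-H1650 cells measured by a cell viability assay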
# Description: SANGER: Inhibition of human NCI-H1650 cell growth in a cell viability assay.
# [3] = test system: Ramos-2G6-4C10; type: functional, cell-based; details: Homo sapiens;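 also: growth inhibition of the cell line, measured by a cell viability read-out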
# Description: SANGER: Inhibition of human Ramos-2G6-4C10 cell growth in a cell viability assay.
# [4] = test system: SF-539; type: functional, cell-based; details: Homo sapiens;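 also: Read-out is a cell viability assay, with IC50 reflecting inhibition of cell growth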
# Description: SANGER: Inhibition of human SF539 cell growth in a cell viability assay.
# [5] = test system: OMC-1; type: functional, cell-based; details: Homo sapiens;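 also: growth inhibition of the OMC-1 cell line, measured by a cell viability assay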
# Description: SANGER: Inhibition of human OMC-1 cell growth in a cell viability assay.
# [6] = test system: A4-Fuk; type: functional, cell-based; details: Homo sapiens;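 also: growth inhibition of A4-Fuk cells, read out by a cell viability assay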
# Description: SANGER: Inhibition of human A4-Fuk cell growth in a cell viability assay.
# [7] = test system: RPMI-8226; type: functional, cell-based; details: Homo sapiens
# Description: SANGER: Inhibition of human RPMI-8226 cell growth in a cell viability assay.
# [8] = test system: KG-1; type: functional, cell-based; details: Homo sapiens;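 also: growth inhibition of KG-1 cells, read out by a cell viability assay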
# Description: SANGER: Inhibition of human KG-1 cell growth in a cell viability assay.
# [9] = test system: TE-8; type: functional, cell-based; details: Homo sapiens;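 also: growth inhibition of TE-8 cells, measured with a cell viability readout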
# Description: SANGER: Inhibition of human TE-8 cell growth in a cell viability assay.
# [10] = test system: HOP-62; type: functional, cell-based; details: Homo sapiens;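 also: cell growth inhibition determined with a viability assay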
# Description: SANGER: Inhibition of human HOP-62 cell growth in a cell viability assay.
# [11] = test system: CAL-12T; type: functional, cell-based, Homo sapiens; details: Homo sapiens, CAL-12T;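 also: growth inhibition of human CAL-12T cells, read out with a cell viability assay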
# Description: SANGER: Inhibition of human CAL-12T cell growth in a cell viability assay.
# [12] = test system: BB65-RCC; type: functional, cell-based; details: Homo sapiens;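 also: growth inhibition of the cell line, measured with a cell viability assay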
# Description: SANGER: Inhibition of human BB65-RCC cell growth in a cell viability assay.
# [13] = test system: SCH; type: functional, cell-based; details: Homo sapiens;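 also: growth inhibition of human SCH cells, read out in a cell viability assay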
# Description: SANGER: Inhibition of human SCH cell growth in a cell viability assay.
# [14] = test system: TGBC1TKB; type: functional, cell-based; details: Homo sapiens;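 also: growth inhibition of TGBC1TKB cells, read out by a cell viability assay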
# Description: SANGER: Inhibition of human TGBC1TKB cell growth in a cell viability assay.
# [15] = test system: SK-N-DZ; type: functional, cell-based; details: Homo sapiens;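 also: growth inhibition of the cancer cell line, read out through a viability assay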
# Description: SANGER: Inhibition of human SK-N-DZ cell growth in a cell viability assay.
# [16] = test system: SK-NEP-1; type: functional, cell-based; details: Homo sapiens;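 also: growth inhibition of human SK-NEP-1 cells, read out by a cell viability assay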
# Description: SANGER: Inhibition of human SK-NEP-1 cell growth in a cell viability assay.
# [17] = test system: MHH-PREB-1; type: functional, cell-based; details: Homo sapiens;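 also: cell viability assay measuring inhibition of proliferation of human MHH-PREB-1 cells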
# Description: SANGER: Inhibition of human MHH-PREB-1 cell growth in a cell viability assay.
# [18] = test system: MOLT-16; type: functional, cell-based; details: Homo sapiens;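 also: growth inhibition of human MOLT-16 cells, read out with a cell viability assay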
# Description: SANGER: Inhibition of human MOLT-16 cell growth in a cell viability assay.
# [19] = test system: NB69; type: functional, cell-based; details: Homo sapiens;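 also: growth inhibition of NB69 cells, determined by a cell viability assay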
# Description: SANGER: Inhibition of human NB69 cell growth in a cell viability assay.
# [20] = test system: SW-620; type: functional, cell-based; details: Homo sapiens;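 also: growth inhibition of human SW-620 cells, measured by a cell viability assay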
# Description: SANGER: Inhibition of human SW620 cell growth in a cell viability assay.
# [21] = test system: JVM-3; type: functional, cell-based; details: Homo sapiens;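 also: growth inhibition of human JVM-3 cells, read out with a cell viability assay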
# Description: SANGER: Inhibition of human JVM-3 cell growth in a cell viability assay.
# [22] = test system: D-502MG; type: functional, cell-based; details: Homo sapiens
# Description: SANGER: Inhibition of human D-502MG cell growth in a cell viability assay.
# [23] = test system: SK-UT-1; type: functional, cell-based; details: Homo sapiens;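 also: growth inhibition of SK-UT-1 cells, measured by a cell viability assay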
# Description: SANGER: Inhibition of human SK-UT-1 cell growth in a cell viability assay.
# [24] = test system: EW-13; type: functional, cell-based; details: Homo sapiens;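 also: growth inhibition of EW-13 cells, read out with a cell viability assay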
# Description: SANGER: Inhibition of human EW-13 cell growth in a cell viability assay.
# [25] = test system: LB2518-MEL; type: functional, cell-based; details: Homo sapiens;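 also: growth inhibition of human LB2518-MEL cells, measured with a cell viability assay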
# Description: SANGER: Inhibition of human LB2518-MEL cell growth in a cell viability assay.
# [26] = test system: HDLM-2; type: functional, cell-based; details: Homo sapiens;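 also: cell viability assay measuring suppression of HDLM-2 proliferation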
# Description: SANGER: Inhibition of human HDLM-2 cell growth in a cell viability assay.
# [27] = test system: RPMI-8866; type: functional, cell-based; details: Homo sapiens
# Description: SANGER: Inhibition of human RPMI-8866 cell growth in a cell viability assay.
# [28] = test system: NCI-H1838; type: functional, cell-based; details: Homo sapiens;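 also: growth inhibition of NCI-H1838 cells, determined with a cell viability readout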
# Description: SANGER: Inhibition of human NCI-H1838 cell growth in a cell viability assay.
# [29] = test system: NCI-H1581; type: functional, cell-based; details: Homo sapiens;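 also: cell growth inhibition read out by a viability assay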
# Description: SANGER: Inhibition of human NCI-H1581 cell growth in a cell viability assay.
# [30] = test system: SK-MEL-1; type: functional, cell-based; details: Homo sapiens;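 also: growth inhibition of human SK-MEL-1 cells, read out by a cell viability assay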
# Description: SANGER: Inhibition of human SK-MEL-1 cell growth in a cell viability assay.
# [31] = test system: NCI-H1693; type: functional, cell-based; details: Homo sapiens;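 also: growth inhibition of the human cell line, read out with a cell viability assay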
# Description: SANGER: Inhibition of human NCI-H1693 cell growth in a cell viability assay.
# [32] = test system: Becker; type: functional, cell-based; details: Homo sapiens;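 also: growth inhibition of Becker cells, read out with a cell viability assay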
# Description: SANGER: Inhibition of human Becker cell growth in a cell viability assay.
# [33] = test system: KM-H2; type: functional, cell-based; details: Homo sapiens;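 also: growth inhibition of KM-H2 cells, read out by a cell viability assay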
# Description: SANGER: Inhibition of human KM-H2 cell growth in a cell viability assay.
# [34] = test system: 697; type: functional, cell-based; details: Homo sapiens
# Description: SANGER: Inhibition of human 697 cell growth in a cell viability assay.
# [35] = test system: DJM-1; type: functional, cell-based; details: Homo sapiens;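 also: growth inhibition of human DJM-1 cells, read out by a cell viability assay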
# Description: SANGER: Inhibition of human DJM-1 cell growth in a cell viability assay.
# [36] = test system: HAL-01; type: functional, cell-based; details: Homo sapiens;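 also: growth inhibition of human HAL-01 cells, read out with a cell viability assay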
# Description: SANGER: Inhibition of human HAL-01 cell growth in a cell viability assay.
# [37] = test system: A498; type: functional, cell-based; details: Homo sapiens;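 also: growth inhibition of human A498 cells, read out with a cell viability assay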
# Description: SANGER: Inhibition of human A498 cell growth in a cell viability assay.
# [38] = test system: LB1047-RCC; type: functional, cell-based; details: Homo sapiens;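 also: inhibition of cell growth, determined with a cell viability assay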
# Description: SANGER: Inhibition of human LB1047-RCC cell growth in a cell viability assay.
# [39] = test system: TGBC24TKB; type: functional, cell-based; details: Homo sapiens;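 also: growth inhibition of human TGBC24TKB cells, read out with a cell viability assay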
# Description: SANGER: Inhibition of human TGBC24TKB cell growth in a cell viability assay.
# [40] = test system: NCI-H1304; type: functional, cell-based; details: Homo sapiens;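 also: growth inhibition of the cancer cell line, measured in a cell viability assay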
# Description: SANGER: Inhibition of human NCI-H1304 cell growth in a cell viability assay.
# [41] = test system: ATN-1; type: functional, cell-based; details: Homo sapiens;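 also: growth inhibition of human ATN-1 cells, read out with a cell viability assay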
# Description: SANGER: Inhibition of human ATN-1 cell growth in a cell viability assay.
# [42] = test system: KARPAS-45; type: functional, cell-based; details: Homo sapiens;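 also: inhibition of cell line growth, read out through a viability assay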
# Description: SANGER: Inhibition of human KARPAS-45 cell growth in a cell viability assay.
# [43] = test system: KNS-81-FD; type: functional, cell-based; details: Homo sapiens;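 also: growth inhibition of KNS-81-FD cells, read out with a cell viability assay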
# Description: SANGER: Inhibition of human KNS-81-FD cell growth in a cell viability assay.
# [44] = test system: HCC1187; type: functional, cell-based; details: Homo sapiens;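 also: growth inhibition of HCC1187 cells, read out with a cell viability assay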
# Description: SANGER: Inhibition of human HCC1187 cell growth in a cell viability assay.
# [45] = test system: RCC10RGB; type: functional, cell-based; details: Homo sapiens;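 also: growth inhibition of human RCC10RGB cells, read out by a cell viability assay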
# Description: SANGER: Inhibition of human RCC10RGB cell growth in a cell viability assay.
# [46] = test system: MeWo; type: functional, cell-based; details: Homo sapiens;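 also: growth inhibition of MeWo cells, determined by a cell viability readout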
# Description: SANGER: Inhibition of human Mewo cell growth in a cell viability assay.
# [47] = test system: HOS; type: functional, cell-based; details: Homo sapiens;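 also: growth inhibition of human HOS cells, read out with a cell viability assay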
# Description: SANGER: Inhibition of human HOS cell growth in a cell viability assay.
# [48] = test system: JVM-2; type: functional, cell-based; details: Homo sapiens;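 also: growth inhibition of JVM-2 cells determined by a cell viability assay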
# Description: SANGER: Inhibition of human JVM-2 cell growth in a cell viability assay.
# [49] = test system: ES6; type: functional, cell-based; details: Homo sapiens;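 also: growth inhibition of human ES6 cells, read out with a cell viability assay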
# Description: SANGER: Inhibition of human ES6 cell growth in a cell viability assay.
# [50] = test system: EKVX; type: functional, cell-based; details: Homo sapiens;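 also: growth inhibition of human EKVX cells, read out with a cell viability assay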
# Description: SANGER: Inhibition of human EKVX cell growth in a cell viability assay.
# [51] = test system: ES4; type: functional, cell-based; details: Homo sapiens;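 also: growth inhibition of human ES4 cells, read out by a cell viability assay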
# Description: SANGER: Inhibition of human ES4 cell growth in a cell viability assay.
# [52] = test system: ES5; type: functional, cell-based; details: Homo sapiens;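 also: growth inhibition of human ES5 cells, read out by a cell viability assay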
# Description: SANGER: Inhibition of human ES5 cell growth in a cell viability assay.
# [53] = test system: KARPAS-299; type: functional, cell-based; details: Homo sapiens
# Description: SANGER: Inhibition of human KARPAS-299 cell growth in a cell viability assay.
# [54] = test system: MMAC-SF; type: functional, cell-based; details: Homo sapiens;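 also: growth inhibition of human MMAC-SF cells, read out with a cell viability assay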
# Description: SANGER: Inhibition of human MMAC-SF cell growth in a cell viability assay.
# [55] = test system: BV-173; type: functional, cell-based; details: Homo sapiens
# Description: SANGER: Inhibition of human BV-173 cell growth in a cell viability assay.
compound,measurement,setting,value
NC(=O)c1ncn([C@@H]2O[C@H](COP(=O)(O)O)[C@@H](O)[C@H]2O)c1N,IC50,[1],> 2 mM
same,IC50,[2],> 2 mM
same,IC50,[3],238 µM
same,IC50,[4],> 2 mM
same,IC50,[5],> 2 mM
same,IC50,[6],297 µM
same,IC50,[7],501 µM
same,IC50,[8],301 µM
same,IC50,[9],828 µM
same,IC50,[10],> 2 mM
same,IC50,[11],668 µM
same,IC50,[12],1.2 mM
same,IC50,[13],> 2 mM
same,IC50,[14],814 µM
same,IC50,[15],1.02 mM
same,IC50,[16],611 µM
same,IC50,[17],416 µM
same,IC50,[18],> 2 mM
same,IC50,[19],976 µM
same,IC50,[20],> 2 mM
same,IC50,[21],> 2 mM
same,IC50,[22],> 2 mM
same,IC50,[23],> 2 mM
same,IC50,[24],> 2 mM
same,IC50,[25],> 2 mM
same,IC50,[26],1.78 mM
same,IC50,[27],> 2 mM
same,IC50,[28],> 2 mM
same,IC50,[29],> 2 mM
same,IC50,[30],> 2 mM
same,IC50,[31],> 2 mM
same,IC50,[32],> 2 mM
same,IC50,[33],1.17 mM
same,IC50,[34],483 µM
same,IC50,[35],> 2 mM
same,IC50,[36],434 µM
same,IC50,[37],> 2 mM
same,IC50,[38],> 2 mM
same,IC50,[39],736 µM
same,IC50,[40],> 2 mM
same,IC50,[41],412 µM
same,IC50,[42],1.41 mM
same,IC50,[43],> 2 mM
same,IC50,[44],1.14 mM
same,IC50,[45],> 2 mM
same,IC50,[46],> 2 mM
same,IC50,[47],> 2 mM
same,IC50,[48],> 2 mM
same,IC50,[49],> 2 mM
same,IC50,[50],> 2 mM
same,IC50,[51],1.77 mM
same,IC50,[52],> 2 mM
same,IC50,[53],> 2 mM
same,IC50,[54],> 2 mM
same,IC50,[55],93.8 µM
